Converted amounts (≈) assume the structure as drawn. Like-named read-outs stand apart in the source and are kept apart here.
Legend:
Type in all cases: cell-based
[1] = test system: Staphylococcus aureus 209P; assay: MIC, serial dilution on Mueller Hinton agar
[2] = test system: Staphylococcus aureus Ap01; assay: MIC, serial dilution on Mueller Hinton agar
Bacillus subtilis PCI219 = assay: MIC, serial dilution on Mueller Hinton agar
[3] = test system: Corynebacterium bovis 1810; assay: MIC, serial dilution on Mueller Hinton agar
Escherichia coli K-12 = assay: MIC, serial dilution on Mueller Hinton agar; settings: K12; Escherichia coli K-12; Mueller Hinton agar, 37°C, 18 hours; read-out: MIC.
Escherichia coli K-12 R5 = assay: MIC, serial dilution on Mueller Hinton agar; settings: K12R5, 18 h
[4] = test system: Escherichia coli K-12 ML 1629; assay: MIC, serial dilution on Mueller Hinton agar; settings: K12ML1629, Escherichia coli K-12 ML 1629, resistance mechanism APH(3')-I, 37°C, 18 hours
[5] = test system: Escherichia coli K-12 LA 290 R55; assay: MIC, serial dilution on Mueller Hinton agar; settings: Escherichia coli, K12LA290R55, 18 h
Escherichia coli JR225 = assay: microbe, parasite or virus in culture; settings: Escherichia coli, JR225, 18 h
[6] = test system: Escherichia coli JR66/W677; assay: microbe, parasite or virus in culture; settings: JR66/W677, 18 h
Mycobacterium 607 = assay: MIC, serial dilution on Mueller Hinton agar
[7] = test system: Klebsiella pneumoniae 22#3038; assay: MIC, serial dilution on Mueller Hinton agar; settings: Klebsiella pneumoniae 22#3038, resistance mechanism APH(3')-II, ANT(2"), 37°C, 18 hours
From the text: The antibacterial spectra so determined of the new compounds No. 1 to No. 13 (each in the form of the free base) of this invention are as shown in Table 1 below.

Proteus rettgeri GN 311 = assay: MIC, serial dilution on Mueller Hinton agar; settings: Providencia rettgeri, GN311; Proteus rettgeri GN 311; Mueller Hinton agar, 37°C, 18 hours; read-out: MIC.
Serratia marcescens = assay: MIC, serial dilution on Mueller Hinton agar
Providencia sp. Pv 16 = assay: MIC, serial dilution on Mueller Hinton agar
[8] = test system: Pseudomonas aeruginosa A3; assay: MIC, serial dilution on Mueller Hinton agar
[9] = test system: Pseudomonas aeruginosa GN 315; assay: MIC, serial dilution on Mueller Hinton agar
[10] = Staphylococcus aureus 209P, Mueller Hinton agar, 37°C, 18 hours, read-out: MIC.
[11] = Staphylococcus aureus Ap01, resistance mechanism ANT(4'), Mueller Hinton agar, 37°C, 18 hours, read-out: MIC.
[12] = Bacillus subtilis PCI219, Mueller Hinton agar, 37°C, 18 hours, read-out: MIC.
[13] = Corynebacterium bovis 1810, Mueller Hinton agar, 37°C, 18 hours, read-out: MIC.
[14] = Mycobacterium 607, Mueller Hinton agar, 37°C, incubated for 40 hours, read-out: MIC.
[15] = SP.PV16, Providencia sp. Pv 16, resistance mechanism AAC(2'), Mueller Hinton agar, 37°C, 18 hours, read-out: MIC.
[16] = Pseudomonas aeruginosa A3, Mueller Hinton agar, 37°C, 18 hours, read-out: MIC.
[17] = GN315, Pseudomonas aeruginosa GN 315, resistance mechanism AAC(6'), Mueller Hinton agar, 37°C, 18 hours, read-out: MIC.
[18] = Mueller Hinton agar, 37°C, 18 hours, read-out: MIC.
[19] = Staphylococcus aureus, AP01, 18 h
[20] = Pseudomonas aeruginosa, GN315, 18 h

SMILES | MIC [1, 10] | MIC [2, 11] | MIC (Bacillus subtilis PCI219; [12]) | MIC [3, 13] | MIC (Escherichia coli K-12) | MIC (Escherichia coli K-12 R5) | MIC [4] | MIC [5] | MIC (Escherichia coli JR225) | MIC [6] | MIC (Mycobacterium 607; [14]) | MIC [7] | MIC (Proteus rettgeri GN 311) | MIC (Serratia marcescens; 18 h) | MIC (Providencia sp. Pv 16; [15]) | MIC [8, 16] | MIC [9, 17] | MIC (Serratia marcescens; [18]) | further results
NC[C@H](O)C(=O)N[C@@H]1C[C@H](N)[C@@H](O[C@H]2O[C@H](CN)[C@@H](O)[C@H](O)[C@H]2N)[C@H](F)[C@H]1O[C@H]1O[C@H](CO)[C@@H](O)[C@H](N)[C@H]1O [Compound No. 5, 1-N-(3-Amino-2-(S)-hydroxypropionyl)-5-deoxy-5-fluorokanamycin B] | 0.39 µg/mL (≈ 0.681 µM) | 6.25 µg/mL (≈ 10.9 µM) | 0.78 µg/mL (≈ 1.36 µM) | < 0.2 µg/mL | < 0.2 µg/mL | 12.5 µg/mL (≈ 21.8 µM) | 0.78 µg/mL (≈ 1.36 µM) | 1.56 µg/mL (≈ 2.72 µM) | 0.2 µg/mL (≈ 0.349 µM) | 1.56 µg/mL (≈ 2.72 µM) | 6.25 µg/mL (≈ 10.9 µM) | 3.12 µg/mL (≈ 5.45 µM) | < 0.2 µg/mL | 1.56 µg/mL (≈ 2.72 µM) | 0.78 µg/mL (≈ 1.36 µM) | 0.2 µg/mL (≈ 0.349 µM) | 6.25 µg/mL (≈ 10.9 µM) | – | –
NC[C@@H]1C[C@H](O)[C@@H](N)[C@@H](O[C@H]2[C@H](F)[C@@H](O[C@H]3O[C@H](CO)[C@@H](O)[C@H](N)[C@H]3O)[C@H](N)C[C@@H]2N)O1 [Compound No. 3, 5,4'-Dideoxy-5-fluorokanamycin B] | 0.39 µg/mL (≈ 0.831 µM) | 0.78 µg/mL (≈ 1.66 µM) | 0.39 µg/mL (≈ 0.831 µM) | 0.78 µg/mL (≈ 1.66 µM) | 1.56 µg/mL (≈ 3.32 µM) | 100 µg/mL (≈ 213 µM) | > 100 µg/mL | 6.25 µg/mL (≈ 13.3 µM) | 6.25 µg/mL (≈ 13.3 µM) | > 100 µg/mL | 3.12 µg/mL (≈ 6.65 µM) | > 100 µg/mL | 0.2 µg/mL (≈ 0.426 µM) | – | – | 3.12 µg/mL (≈ 6.65 µM) | 100 µg/mL (≈ 213 µM) | 12.5 µg/mL (≈ 26.6 µM) | MIC (Providencia sp. Pv 16; Providencia, SP.PV16, 18 h): 6.25 µg/mL (≈ 13.3 µM)
NCC[C@H](O)C(=O)N[C@@H]1C[C@H](N)[C@@H](O[C@H]2O[C@H](CN)[C@@H](O)[C@H](O)[C@H]2O)[C@H](O)[C@H]1O[C@H]1O[C@H](CO)[C@@H](O)[C@H](N)[C@H]1O [AMK, 1-N-(4-amino-2-(S)-hydroxybutyryl)-kanamycin A, reference compound] | – | – | – | – | – | 25 µg/mL (≈ 42.7 µM) | 1.56 µg/mL (≈ 2.66 µM) | 1.56 µg/mL (≈ 2.66 µM) | – | 3.12 µg/mL (≈ 5.33 µM) | – | 3.12 µg/mL (≈ 5.33 µM) | – | – | – | – | 25 µg/mL (≈ 42.7 µM) | 6.25 µg/mL (≈ 10.7 µM) | MIC ([1]; Staphylococcus aureus, 209P, 18 h): 1.56 µg/mL (≈ 2.66 µM); MIC [2, 19]: 3.12 µg/mL (≈ 5.33 µM); MIC (Bacillus subtilis PCI219; Bacillus subtilis, PCI219, 18 h): 1.56 µg/mL (≈ 2.66 µM); MIC ([3]; Corynebacterium bovis, 1810, 18 h): 1.56 µg/mL (≈ 2.66 µM); MIC ([8]; Pseudomonas aeruginosa, A3, 18 h): 1.56 µg/mL (≈ 2.66 µM)
NC[C@@H]1CC[C@@H](N)[C@@H](O[C@H]2[C@H](F)[C@@H](O[C@H]3O[C@H](CO)[C@@H](O)[C@H](N)[C@H]3O)[C@H](NC(=O)[C@@H](O)CN)C[C@@H]2N)O1 [Compound No. 12, 1-N-(3-Amino-2-(S)-hydroxypropionyl)-5,3',4'-trideoxy-5-fluorokanamycin B] | 0.39 µg/mL (≈ 0.721 µM) | 0.78 µg/mL (≈ 1.44 µM) | 0.39 µg/mL (≈ 0.721 µM) | 0.2 µg/mL (≈ 0.37 µM) | 0.2 µg/mL (≈ 0.37 µM) | 50 µg/mL (≈ 92.5 µM) | 0.78 µg/mL (≈ 1.44 µM) | 1.56 µg/mL (≈ 2.89 µM) | 0.39 µg/mL (≈ 0.721 µM) | 1.56 µg/mL (≈ 2.89 µM) | 0.78 µg/mL (≈ 1.44 µM) | 1.56 µg/mL (≈ 2.89 µM) | < 0.2 µg/mL | 1.56 µg/mL (≈ 2.89 µM) | – | 0.39 µg/mL (≈ 0.721 µM) | 6.25 µg/mL (≈ 11.6 µM) | – | MIC (Providencia sp. Pv 16; Providencia, SP.PV16, 18 h): 1.56 µg/mL (≈ 2.89 µM)
NCC(O)C(=O)N[C@@H]1C[C@H](N)[C@@H](O[C@H]2O[C@H](CN)[C@@H](O)C[C@H]2N)[C@H](F)[C@H]1O[C@H]1O[C@H](CO)[C@@H](O)[C@H](N)[C@H]1O (stereo partly drawn) [Compound No. 7, 1-N-(3-Amino-2-(RS)-hydroxypropionyl)-5,3'-dideoxy-5-fluorokanamycin B] | 0.39 µg/mL (≈ 0.701 µM) | – | 0.2 µg/mL (≈ 0.359 µM) | < 0.2 µg/mL | 0.2 µg/mL (≈ 0.359 µM) | 6.25 µg/mL (≈ 11.2 µM) | 0.78 µg/mL (≈ 1.4 µM) | 0.78 µg/mL (≈ 1.4 µM) | 0.78 µg/mL (≈ 1.4 µM) | 1.56 µg/mL (≈ 2.8 µM) | 0.78 µg/mL (≈ 1.4 µM) | 3.12 µg/mL (≈ 5.61 µM) | 0.78 µg/mL (≈ 1.4 µM) | 3.12 µg/mL (≈ 5.61 µM) | 0.78 µg/mL (≈ 1.4 µM) | 0.39 µg/mL (≈ 0.701 µM) | – | – | MIC [2, 19]: 1.56 µg/mL (≈ 2.8 µM); MIC [9, 20]: 6.25 µg/mL (≈ 11.2 µM)
NC[C@H](O)C(=O)N[C@@H]1C[C@H](N)[C@@H](O[C@H]2O[C@H](CN)[C@@H](O)C[C@H]2N)[C@H](F)[C@H]1O[C@H]1O[C@H](CO)[C@@H](O)[C@H](N)[C@H]1O [Compound No. 8, 1-N-(3-Amino-2-(S)-hydroxypropionyl)-5,3'-dideoxy-5-fluorokanamycin B] | 0.39 µg/mL (≈ 0.701 µM) | 0.78 µg/mL (≈ 1.4 µM) | 0.2 µg/mL (≈ 0.359 µM) | < 0.2 µg/mL | 0.2 µg/mL (≈ 0.359 µM) | 6.25 µg/mL (≈ 11.2 µM) | 0.78 µg/mL (≈ 1.4 µM) | 1.56 µg/mL (≈ 2.8 µM) | 0.78 µg/mL (≈ 1.4 µM) | 0.78 µg/mL (≈ 1.4 µM) | 0.78 µg/mL (≈ 1.4 µM) | 1.56 µg/mL (≈ 2.8 µM) | 0.39 µg/mL (≈ 0.701 µM) | 3.12 µg/mL (≈ 5.61 µM) | 0.78 µg/mL (≈ 1.4 µM) | 0.39 µg/mL (≈ 0.701 µM) | – | – | MIC [9, 20]: 6.25 µg/mL (≈ 11.2 µM)
NCC[C@H](O)C(=O)N[C@@H]1C[C@H](N)[C@@H](O[C@H]2O[C@H](CN)[C@@H](O)[C@H](O)[C@H]2N)[C@H](F)[C@H]1O[C@H]1O[C@H](CO)[C@@H](O)[C@H](N)[C@H]1O [Compound No. 6, 1-N-(4-Amino-2-(S)-hydroxybutyryl)-5-deoxy-5-fluorokanamycin B] | 0.39 µg/mL (≈ 0.665 µM) | 6.25 µg/mL (≈ 10.7 µM) | 0.39 µg/mL (≈ 0.665 µM) | < 0.2 µg/mL | < 0.2 µg/mL | 12.5 µg/mL (≈ 21.3 µM) | 0.78 µg/mL (≈ 1.33 µM) | 0.78 µg/mL (≈ 1.33 µM) | < 0.2 µg/mL | 0.78 µg/mL (≈ 1.33 µM) | – | 3.12 µg/mL (≈ 5.32 µM) | < 0.2 µg/mL | – | 0.78 µg/mL (≈ 1.33 µM) | < 0.2 µg/mL | 6.25 µg/mL (≈ 10.7 µM) | 1.56 µg/mL (≈ 2.66 µM) | MIC (Mycobacterium 607; Mycobacterium, 607, 40 h): 12.5 µg/mL (≈ 21.3 µM)
NC[C@@H]1CC[C@@H](N)[C@@H](O[C@H]2[C@H](O)[C@@H](O[C@H]3O[C@H](CO)[C@@H](O)[C@H](N)[C@H]3O)[C@H](N)C[C@@H]2N)O1 [DKB, 3',4'-dideoxykanamycin B, reference compound] | 0.39 µg/mL (≈ 0.864 µM) | – | 0.39 µg/mL (≈ 0.864 µM) | – | 0.2 µg/mL (≈ 0.443 µM) | 50 µg/mL (≈ 111 µM) | – | 50 µg/mL (≈ 111 µM) | 100 µg/mL (≈ 221 µM) | – | 1.56 µg/mL (≈ 3.45 µM) | 50 µg/mL (≈ 111 µM) | 0.2 µg/mL (≈ 0.443 µM) | – | – | 0.2 µg/mL (≈ 0.443 µM) | – | – | –
